# Laboratory results as given in ChEMBL document CHEMBL1145378 (J Med Chem, 2007).
# Assays:
# [1] = molecular target: Voltage-gated inwardly rectifying potassium channel KCNH2 (Homo sapiens, UniProt Q12809)
# [2] = Permeability from basolateral to apical side of the Caco-2 cell membrane; format: ADME, cell-based; settings: human
# [3] = Permeability from apical to basolateral side of the Caco-2 cell membrane; format: ADME, cell-based; settings: human
# hERG (KCNH2) = hERG (KCNH2) (Homo sapiens, UniProt Q12809); test: in vitro; settings: HEK293 cells that express hERG
# hERG (KCNH2), sequence (Q12809 whole entry): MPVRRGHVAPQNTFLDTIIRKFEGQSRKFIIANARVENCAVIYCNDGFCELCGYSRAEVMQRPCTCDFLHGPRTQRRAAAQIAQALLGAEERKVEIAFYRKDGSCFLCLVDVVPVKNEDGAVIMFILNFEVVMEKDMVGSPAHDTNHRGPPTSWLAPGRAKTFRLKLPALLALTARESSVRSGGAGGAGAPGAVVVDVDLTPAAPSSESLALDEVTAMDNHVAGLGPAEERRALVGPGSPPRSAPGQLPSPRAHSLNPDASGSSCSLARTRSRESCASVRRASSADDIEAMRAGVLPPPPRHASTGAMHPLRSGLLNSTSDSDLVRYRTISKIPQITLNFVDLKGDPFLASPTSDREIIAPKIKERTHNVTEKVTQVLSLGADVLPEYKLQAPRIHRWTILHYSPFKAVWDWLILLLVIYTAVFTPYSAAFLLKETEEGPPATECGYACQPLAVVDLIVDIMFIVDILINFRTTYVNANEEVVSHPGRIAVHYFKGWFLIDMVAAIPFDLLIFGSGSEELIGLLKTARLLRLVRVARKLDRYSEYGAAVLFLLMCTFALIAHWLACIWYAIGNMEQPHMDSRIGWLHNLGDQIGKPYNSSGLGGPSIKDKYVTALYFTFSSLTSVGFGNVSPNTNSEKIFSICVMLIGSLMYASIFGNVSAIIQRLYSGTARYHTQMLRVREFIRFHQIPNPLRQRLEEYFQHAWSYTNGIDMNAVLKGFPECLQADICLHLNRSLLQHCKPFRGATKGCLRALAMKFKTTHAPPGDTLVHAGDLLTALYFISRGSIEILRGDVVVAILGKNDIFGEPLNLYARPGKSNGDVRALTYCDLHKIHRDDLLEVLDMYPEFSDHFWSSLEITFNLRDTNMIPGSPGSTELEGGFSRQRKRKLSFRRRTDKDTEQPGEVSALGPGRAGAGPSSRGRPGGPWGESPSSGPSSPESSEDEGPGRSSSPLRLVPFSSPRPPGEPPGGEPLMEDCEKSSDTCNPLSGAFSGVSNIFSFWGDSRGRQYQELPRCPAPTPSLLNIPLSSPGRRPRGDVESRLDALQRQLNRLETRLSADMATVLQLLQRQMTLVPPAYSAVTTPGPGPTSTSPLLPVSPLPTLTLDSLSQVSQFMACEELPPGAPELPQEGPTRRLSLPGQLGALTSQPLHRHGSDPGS
# Voltage-gated inwardly rectifying potassium channel KCNH2, sequence (Q12809 whole entry): as above
Compound,Ki [1] [nM],also measured
CC1(C)C2=C3C=C4C5=[N+](CCC4OC3CCN2c2ccc(CCCCCC(=O)NCCCCCCN(CCOc3ccc(NS(C)(=O)=O)cc3)CCc3ccc(NS(C)(=O)=O)cc3)cc21)c1ccc(S(=O)(=O)[O-])cc1C5(C)C (configuration not stated),10,–
CC1(C)C2=C3C=C4C5=[N+](CCC4OC3CCN2c2ccc(CC(=O)NCCCCCN(CCOc3ccc(NS(C)(=O)=O)cc3)CCc3ccc(NS(C)(=O)=O)cc3)cc21)c1ccc(S(=O)(=O)[O-])cc1C5(C)C (configuration not stated),13,–
CS(=O)(=O)Nc1ccc(CCN(CCOc2ccc(NS(C)(=O)=O)cc2)c2ccc([N+](=O)[O-])c3nonc23)cc1,–,Papp B→A [2]: 18 ×10⁻⁶ cm/s; Papp A→B [3]: 3.7 ×10⁻⁶ cm/s
CC1(C)C2=C3C=C4C5=[N+](CCC4OC3CCN2c2ccc(CC(=O)NCCCN(CCOc3ccc(NS(C)(=O)=O)cc3)CCc3ccc(NS(C)(=O)=O)cc3)cc21)c1ccc(S(=O)(=O)[O-])cc1C5(C)C (configuration not stated),160,–
CCNC(=O)Cc1ccc2c(c1)C(C)(C)C1C3C=C4C5=[N+](CCC4OC3CCN21)c1ccc(S(=O)(=O)[O-])cc1C5(C)C (configuration not stated),> 1000,–
CC1(C)C2=C3C=C4C5=[N+](CCC4OC3CCN2c2ccc(CC(=O)NCCN(CCOc3ccc(NS(C)(=O)=O)cc3)CCc3ccc(NS(C)(=O)=O)cc3)cc21)c1ccc(S(=O)(=O)[O-])cc1C5(C)C (configuration not stated),7300,–
CN(C)c1ccc2c(c1)Oc1cc(N(C)C)ccc1C21OC(=O)c2cc(C(=O)NCCCCCCN(CCOc3ccc(NS(C)(=O)=O)cc3)CCc3ccc(NS(C)(=O)=O)cc3)ccc21,89,–
CN(C)c1ccc2c(c1)Oc1cc(N(C)C)ccc1C21OC(=O)c2cc(C(=O)N(CCOc3ccc(NS(C)(=O)=O)cc3)CCc3ccc(NS(C)(=O)=O)cc3)ccc21,> 1000,–
CS(=O)(=O)Nc1ccc(CCN(CCCCCCNC(=O)c2ccc3c(c2)C(=O)OC32c3ccc(O)cc3Oc3cc(O)ccc32)CCOc2ccc(NS(C)(=O)=O)cc2)cc1,15,–
CS(=O)(=O)Nc1ccc(CCN(CCOc2ccc(NS(C)(=O)=O)cc2)C(=O)c2ccc3c(c2)C(=O)OC32c3ccc(O)cc3Oc3cc(O)ccc32)cc1,980,–
CCN1CCCc2cc3c(cc21)OC1=CC2=[N+](CCCC(=O)N(CCOc4ccc(NS(C)(=O)=O)cc4)CCc4ccc(NS(C)(=O)=O)cc4)CCCC2=CC1N3 (configuration not stated),3.6,–
CC1(C)C2=C3C=C4C5=[N+](CCC4OC3CCN2c2ccc(CC(=O)NCCCCN(CCOc3ccc(NS(C)(=O)=O)cc3)CCc3ccc(NS(C)(=O)=O)cc3)cc21)c1ccc(S(=O)(=O)[O-])cc1C5(C)C (configuration not stated),18,–
CC1(C)C2=C3C=C4C5=[N+](CCC4OC3CCN2c2ccc(CCC(=O)NCCCCCCN(CCOc3ccc(NS(C)(=O)=O)cc3)CCc3ccc(NS(C)(=O)=O)cc3)cc21)c1ccc(S(=O)(=O)[O-])cc1C5(C)C (configuration not stated),19,–
CN(CCOc1ccc(NS(C)(=O)=O)cc1)CCc1ccc(NS(C)(=O)=O)cc1 [DOFETILIDE],–,Papp B→A [2]: 14.3 ×10⁻⁶ cm/s; inhibition at 0.025 µM (hERG (KCNH2)): 80%; Papp A→B [3]: 15.7 ×10⁻⁶ cm/s
